Experiment [1] relates to synaptosomes from whole rat brain. Briefly: release of 3H-ACh from synaptosomes under low [K] and high [K] conditions. The experiment is classed as cell-based. The conditions noted are these: FIG. 1. As for the experimental part: Pinched off nerve endings (synaptosomes) from whole rat brain were first incubated in the presence of the precursor ^3 H-choline, which is converted intracellularly to ^3 H-ACh. The release of ACh from synaptosomes was quantitated under low [K] and high [K] conditions intended to simulate physiological stimulation.

In the next experiment the test system is rat brain synaptosomes. In words: resting and voltage dependent uptake of 45Ca into synaptosomes. The experiment is classed as cell-based. The settings on record: compared with depolarized (52.5 K) uptake, FIG. 6. An excerpt: If this compound were acting as a non-specific depolarizing agent, one would predict the resting uptake of ^45 Ca would be stimulated several fold, to the same level as the depolarized (52.5 K) uptake.

The subject of another experiment is synaptosomes. Briefly: electrically stimulated 3H-acetylcholine release from perfused synaptosomes. Type of experiment: cell-based, rat. The conditions noted are these: for electrically stimulated release of ACh (S2/S1 ratio): 10^-6 M drug during the last 25 minutes of perfusion, electrical field stimulation, FIGS. 2 and 3. How it is done: Using a different protocol, synaptosomes, which had been previously incubated with ^3 H-choline, as in the first series of experiments, were continually perfused with HEPES-buffered Krebs solution. The release of ACh was effected by subjecting the synaptosomes to electrical field stimulation, which more closely mimics physiological stimulation. […] The results obtained by calculating the ratio of the amounts of ACh released during the two periods of electrical stimulation (the areas under the curves, S2/S1) indicate that both Rb1 and Rg1 increase the electrically stimulated release. In addition, Rg1 stimulates the resting release of ^3 H-ACh, as indicated, by the increase in the resting efflux of ^3 H-ACh when the drug was first added. While the net amount of ^3 H-ACh released in each run can vary, depending on the amount of protein on the filter and aging of the synaptosomes, the S2/S1 ratio remains quite constant from run to run using a given chamber. Therefore, in each experiment the same chamber was used for both control and test-drug runs.

In the case of `CC(C)=CCC[C@](C)(O[C@@H]1O[C@H](CO[C@@H]2O[C@H](CO)[C@@H](O)[C@H](O)[C@H]2O)[C@@H](O)[C@H](O)[C@H]1O)[C@H]1CC[C@]2(C)[C@@H]1[C@H](O)C[C@@H]1[C@@]3(C)CC[C@H](O[C@@H]4O[C@H](CO)[C@@H](O)[C@H](O)[C@H]4O[C@@H]4O[C@H](CO)[C@@H](O)[C@H](O)[C@H]4O)C(C)(C)[C@@H]3CC[C@]12C` [Rb1, ginsenoside Rb1], the “release of 3H-ACh” value in experiment [1] is given as “increased”. In addition, in the experiment with rat brain synaptosomes, the “resting uptake of 45Ca” value is listed as “only a minimal increase”. Moreover, the “electrically stimulated release of ACh (S2/S1 ratio)” value with synaptosomes is reported as “increase”.

Regarding `CC(C)=CCC[C@](C)(O[C@@H]1O[C@H](CO)[C@@H](O)[C@H](O)[C@H]1O)[C@H]1CC[C@]2(C)[C@@H]1[C@H](O)C[C@@H]1[C@@]3(C)CC[C@H](O)C(C)(C)[C@@H]3[C@@H](O[C@@H]3O[C@H](CO)[C@@H](O)[C@H](O)[C@H]3O)C[C@]12C` [Rg1, ginsenoside Rg1], the “electrically stimulated release of ACh (S2/S1 ratio)” value with synaptosomes is reported as “increase”. The “resting release (resting efflux) of 3H-ACh” value in the experiment with synaptosomes (10^-6 M drug, when the drug was first added) is “stimulates”.

The record behind these values is patent US4966893A, “Method for treatment of senile dementia” (priority 1989, dated 1990).
